Source: the NIST ThermoML archive (doi:10.1021/je1012857)
Numbers after ± are expanded uncertainties.

Assay: xn = mol fraction of the nth substance listed
Settings: 101 kPa, Liquid; for speed of sound: Sing-around technique in a fixed-path interferometer; for viscosity: Capillary tube (Ostwald / Ubbelohde) method

NCCN [ethane-1,2-diamine] + CC(C)CO
speed of sound (303.15 K, x1 = 0.5014): 1393.5 ± 1.3 m/s
speed of sound (303.15 K, x1 = 0.6011): 1439.5 ± 1.3 m/s
speed of sound (303.15 K, x1 = 0.6911): 1480.6 ± 1.3 m/s
speed of sound (303.15 K, x1 = 0.7887): 1530.2 ± 1.3 m/s
speed of sound (303.15 K, x1 = 0.8471): 1561.5 ± 1.3 m/s
speed of sound (303.15 K, x1 = 0.8998): 1591.2 ± 1.3 m/s
speed of sound (303.15 K, x1 = 0.9391): 1614.6 ± 1.3 m/s
mass density (303.15 K, x1 = 0.0664): 802.02 ± 0.56 kg/m3
mass density (303.15 K, x1 = 0.0967): 805.385 ± 0.56 kg/m3
mass density (303.15 K, x1 = 0.1652): 812.854 ± 0.55 kg/m3
mass density (303.15 K, x1 = 0.2002): 816.592 ± 0.54 kg/m3
mass density (303.15 K, x1 = 0.2617): 822.547 ± 0.54 kg/m3
mass density (303.15 K, x1 = 0.3019): 826.644 ± 0.53 kg/m3
mass density (303.15 K, x1 = 0.4093): 836.134 ± 0.52 kg/m3
mass density (303.15 K, x1 = 0.5014): 843.853 ± 0.51 kg/m3
mass density (303.15 K, x1 = 0.6011): 852.325 ± 0.5 kg/m3
mass density (303.15 K, x1 = 0.6911): 859.166 ± 0.49 kg/m3
mass density (303.15 K, x1 = 0.7887): 867.883 ± 0.48 kg/m3
mass density (303.15 K, x1 = 0.8471): 873.42 ± 0.47 kg/m3
mass density (303.15 K, x1 = 0.8998): 878.575 ± 0.47 kg/m3
mass density (303.15 K, x1 = 0.9391): 882.76 ± 0.46 kg/m3
viscosity (308.15 K, x1 = 0.0664): 2.18 ± 0.017 mPa·s
viscosity (308.15 K, x1 = 0.0967): 2.169 ± 0.017 mPa·s
viscosity (308.15 K, x1 = 0.1652): 2.147 ± 0.017 mPa·s
viscosity (308.15 K, x1 = 0.2002): 2.135 ± 0.017 mPa·s
viscosity (308.15 K, x1 = 0.2617): 2.097 ± 0.016 mPa·s
viscosity (308.15 K, x1 = 0.3019): 2.059 ± 0.016 mPa·s
viscosity (308.15 K, x1 = 0.4093): 1.924 ± 0.015 mPa·s
viscosity (308.15 K, x1 = 0.5014): 1.776 ± 0.014 mPa·s
viscosity (308.15 K, x1 = 0.6011): 1.583 ± 0.013 mPa·s
viscosity (308.15 K, x1 = 0.6911): 1.446 ± 0.012 mPa·s
viscosity (308.15 K, x1 = 0.7887): 1.314 ± 0.011 mPa·s
viscosity (308.15 K, x1 = 0.8471): 1.248 ± 0.011 mPa·s
viscosity (308.15 K, x1 = 0.8998): 1.191 ± 0.011 mPa·s
viscosity (308.15 K, x1 = 0.9391): 1.154 ± 0.011 mPa·s
speed of sound (308.15 K, x1 = 0.0664): 1185.4 ± 1.2 m/s
speed of sound (308.15 K, x1 = 0.0967): 1198.8 ± 1.2 m/s
speed of sound (308.15 K, x1 = 0.1652): 1228.7 ± 1.2 m/s
speed of sound (308.15 K, x1 = 0.2002): 1244.4 ± 1.2 m/s
speed of sound (308.15 K, x1 = 0.2617): 1271.1 ± 1.2 m/s
speed of sound (308.15 K, x1 = 0.3019): 1288.9 ± 1.3 m/s
speed of sound (308.15 K, x1 = 0.4093): 1334.9 ± 1.3 m/s
speed of sound (308.15 K, x1 = 0.5014): 1374.9 ± 1.3 m/s
speed of sound (308.15 K, x1 = 0.6011): 1420.2 ± 1.3 m/s
speed of sound (308.15 K, x1 = 0.6911): 1460.9 ± 1.3 m/s
speed of sound (308.15 K, x1 = 0.7887): 1509.8 ± 1.3 m/s
speed of sound (308.15 K, x1 = 0.8471): 1540.7 ± 1.3 m/s
speed of sound (308.15 K, x1 = 0.8998): 1570.1 ± 1.3 m/s
speed of sound (308.15 K, x1 = 0.9391): 1593.1 ± 1.3 m/s
mass density (308.15 K, x1 = 0.0664): 797.994 ± 0.57 kg/m3
mass density (308.15 K, x1 = 0.0967): 801.327 ± 0.56 kg/m3
mass density (308.15 K, x1 = 0.1652): 808.708 ± 0.55 kg/m3
mass density (308.15 K, x1 = 0.2002): 812.41 ± 0.55 kg/m3
mass density (308.15 K, x1 = 0.2617): 818.501 ± 0.54 kg/m3
mass density (308.15 K, x1 = 0.3019): 822.366 ± 0.54 kg/m3
mass density (308.15 K, x1 = 0.4093): 831.795 ± 0.53 kg/m3
mass density (308.15 K, x1 = 0.5014): 839.474 ± 0.52 kg/m3
mass density (308.15 K, x1 = 0.6011): 847.896 ± 0.51 kg/m3
mass density (308.15 K, x1 = 0.6911): 854.681 ± 0.5 kg/m3
mass density (308.15 K, x1 = 0.7887): 863.336 ± 0.49 kg/m3
mass density (308.15 K, x1 = 0.8471): 868.829 ± 0.48 kg/m3
mass density (308.15 K, x1 = 0.8998): 873.941 ± 0.47 kg/m3
mass density (308.15 K, x1 = 0.9391): 878.094 ± 0.47 kg/m3
speed of sound (313.15 K, x1 = 0.0664): 1168.4 ± 1.2 m/s
speed of sound (313.15 K, x1 = 0.0967): 1181.6 ± 1.2 m/s
speed of sound (313.15 K, x1 = 0.1652): 1211.5 ± 1.2 m/s
speed of sound (313.15 K, x1 = 0.2002): 1227.1 ± 1.2 m/s
speed of sound (313.15 K, x1 = 0.2617): 1253.6 ± 1.2 m/s
speed of sound (313.15 K, x1 = 0.3019): 1271.2 ± 1.2 m/s
speed of sound (313.15 K, x1 = 0.4093): 1316.9 ± 1.3 m/s
speed of sound (313.15 K, x1 = 0.5014): 1356.4 ± 1.3 m/s
speed of sound (313.15 K, x1 = 0.6011): 1400.9 ± 1.3 m/s
speed of sound (313.15 K, x1 = 0.6911): 1441.2 ± 1.3 m/s
speed of sound (313.15 K, x1 = 0.7887): 1489.6 ± 1.3 m/s
speed of sound (313.15 K, x1 = 0.8471): 1520.1 ± 1.3 m/s
speed of sound (313.15 K, x1 = 0.8998): 1548.9 ± 1.3 m/s
speed of sound (313.15 K, x1 = 0.9391): 1571.7 ± 1.3 m/s
mass density (313.15 K, x1 = 0.0664): 793.931 ± 0.57 kg/m3
mass density (313.15 K, x1 = 0.0967): 797.223 ± 0.57 kg/m3
mass density (313.15 K, x1 = 0.1652): 804.528 ± 0.56 kg/m3
mass density (313.15 K, x1 = 0.2002): 808.187 ± 0.56 kg/m3
mass density (313.15 K, x1 = 0.2617): 814.225 ± 0.55 kg/m3
mass density (313.15 K, x1 = 0.3019): 818.055 ± 0.54 kg/m3
mass density (313.15 K, x1 = 0.4093): 827.425 ± 0.53 kg/m3
mass density (313.15 K, x1 = 0.5014): 835.064 ± 0.52 kg/m3
mass density (313.15 K, x1 = 0.6011): 843.444 ± 0.51 kg/m3
mass density (313.15 K, x1 = 0.6911): 850.175 ± 0.5 kg/m3
mass density (313.15 K, x1 = 0.7887): 858.761 ± 0.49 kg/m3
mass density (313.15 K, x1 = 0.8471): 864.211 ± 0.49 kg/m3
mass density (313.15 K, x1 = 0.8998): 869.284 ± 0.48 kg/m3
mass density (313.15 K, x1 = 0.9391): 873.407 ± 0.47 kg/m3
